Data published in ChEMBL document CHEMBL1201862, “PubChem BioAssay data set” (2004).
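48-hour exposure; five concentrations; linearly interpolated endpoints. GI50 marks 50% less growth.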 Calls of active or inactive are those of the source. Rule as the data show it: active = GI50 up to about 1.1 µM and inactive = higher.

Key:
Assay in all cases: inhibition of tumour cell growth, NCI panel, 48 h
A549 = test system: A549
CAKI-1 = test system: CAKI-1
HCC 2998 = test system: HCC 2998
HCT-116 = test system: HCT-116
HCT-15 = test system: HCT-15
KM12 = test system: KM12
LOX IMVI = test system: LOX IMVI
M14 = test system: M14
MCF7 = test system: MCF7
MDA-MB-231 = test system: MDA-MB-231
NCI-H226 = test system: NCI-H226
NCI-H23 = test system: NCI-H23
OVCAR-5 = test system: OVCAR-5
PC-3 = test system: PC-3
SK-MEL-5 = test system: SK-MEL-5
SNB-19 = test system: SNB-19
K562 = test system: K562
MOLT-4 = test system: MOLT-4
UACC-62 = test system: UACC-62
CCRF-CEM = test system: CCRF-CEM

Structure (SMILES) | GI50 (A549) | GI50 (CAKI-1) | GI50 (HCC 2998) | GI50 (HCT-116) | GI50 (HCT-15) | GI50 (KM12) | GI50 (LOX IMVI) | GI50 (M14) | GI50 (MCF7) | GI50 (MDA-MB-231) | GI50 (NCI-H226) | GI50 (NCI-H23) | GI50 (OVCAR-5) | GI50 (PC-3) | GI50 (SK-MEL-5) | GI50 (SNB-19) | GI50 (K562) | GI50 (MOLT-4) | GI50 (UACC-62) | GI50 (CCRF-CEM)
Nc1ccc2ccc(-c3ccc[nH]3)nc2n1 | > 100 µM (inactive) | > 100 µM (inactive) | > 100 µM (inactive) | > 100 µM (inactive) | > 100 µM | > 100 µM (inactive) | > 100 µM (inactive) | > 100 µM (inactive) | > 100 µM (inactive) | > 100 µM (inactive) | > 100 µM (inactive) | > 100 µM (inactive) | > 100 µM (inactive) | > 100 µM (inactive) | > 100 µM (inactive) | > 100 µM (inactive) |  |  |  | 
O=C1C=CC2(C=C1)O[C@H](COCc1ccccc1)[C@@H](COCc1ccccc1)O2 | 15.3 µM (inactive) | 2.24 µM (inactive) |  | 0.235 µM (active) | 1.24 µM | 3.49 µM (inactive) | 1.56 µM (inactive) | 1.78 µM (inactive) | 0.313 µM (active) | 3.65 µM (inactive) | 1.82 µM (inactive) | 1.77 µM (inactive) | 1.55 µM (inactive) | 2.13 µM (inactive) | 1.67 µM (inactive) | 2.92 µM (inactive) | 2.25 µM (inactive) | 0.371 µM (active) | 1.88 µM (inactive) | 
Cc1cccc(NS(=O)(=O)c2ccc3c(c2)OCCOCCOCCOCCO3)c1 | > 100 µM (inactive) | > 100 µM (inactive) | > 100 µM (inactive) | > 100 µM (inactive) | > 100 µM | > 100 µM (inactive) |  | > 100 µM (inactive) | > 100 µM (inactive) | > 100 µM (inactive) | > 100 µM (inactive) | > 100 µM (inactive) |  | > 100 µM (inactive) | > 100 µM (inactive) | > 100 µM (inactive) | > 100 µM (inactive) | 63 µM (inactive) | > 100 µM (inactive) | > 100 µM (inactive)
O=C(O)C/N=C(\C(=N\CC(=O)O)c1ccccc1)c1ccccc1 | > 100 µM (inactive) | > 100 µM (inactive) | > 100 µM (inactive) | > 100 µM (inactive) | > 100 µM | > 100 µM (inactive) | > 100 µM (inactive) | > 100 µM (inactive) | > 100 µM (inactive) | > 100 µM (inactive) | > 100 µM (inactive) | > 100 µM (inactive) | > 100 µM (inactive) | > 100 µM (inactive) |  | > 100 µM (inactive) | > 100 µM (inactive) | > 100 µM (inactive) | > 100 µM (inactive) | 
C/C(=N\C1CCCCC1)c1ccccc1O | > 100 µM (inactive) | > 100 µM (inactive) |  | > 100 µM (inactive) | > 100 µM | > 100 µM (inactive) | > 100 µM (inactive) | > 100 µM (inactive) | > 100 µM (inactive) | > 100 µM (inactive) | > 100 µM (inactive) | > 100 µM (inactive) | > 100 µM (inactive) | > 100 µM (inactive) | > 100 µM (inactive) | > 100 µM (inactive) | > 100 µM (inactive) | > 100 µM (inactive) | > 100 µM (inactive) | 54 µM (inactive)
OCCNc1ncnc2c1ncn2C1OC(CO)C(O)C1O (configuration not stated) | > 100 µM (inactive) | > 100 µM (inactive) | 64.9 µM (inactive) | 70.5 µM (inactive) | 42.5 µM | > 100 µM (inactive) | 40.4 µM (inactive) | > 100 µM (inactive) | 39.4 µM (inactive) | 25.5 µM (inactive) |  | > 100 µM (inactive) | > 100 µM (inactive) | 47.4 µM (inactive) | > 100 µM (inactive) | > 100 µM (inactive) |  | 0.224 µM (active) | > 100 µM (inactive) | 30.3 µM (inactive)
